Test results as given in patent US20190135793A1, “HETEROCYCLIC INHIBITORS OF KDM5 FOR THE TREATMENT OF DISEASE” (Board of Regents, The University of Texas System, priority 2017, published 2019).
Like-named read-outs stand apart in the source and are kept apart here.

Tests used:
KDM5B = molecular target: T1, KDM5B (Homo sapiens, UniProt Q9UGL1); experiment: biochemical
T1 construct: Full length of KDM5B and KDM4C protein were purchased from Active Motif; purchased Active Motif 31832
How it was run: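 KDM5B (0.5 nM final) was preincubated with compound for 15 min at room temperature, then reacted with biotinylated peptide (3 nM final) for 25 min at room temperature.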

KDM4C = molecular target: T2, KDM4C (Homo sapiens, UniProt Q9H3R0); experiment: KDM4C AlphaScreen assay; type: biochemical; conditions: AlphaScreen; full length KDM4C 0.2 nM; biotinylated H3K9Me3 peptide 3 nM; 30 minutes at room temperature
T2 construct: Full length of KDM5B and KDM4C protein were purchased from Active Motif; purchased Active Motif 31858
T2 sequence (Q9H3R0 1-1056): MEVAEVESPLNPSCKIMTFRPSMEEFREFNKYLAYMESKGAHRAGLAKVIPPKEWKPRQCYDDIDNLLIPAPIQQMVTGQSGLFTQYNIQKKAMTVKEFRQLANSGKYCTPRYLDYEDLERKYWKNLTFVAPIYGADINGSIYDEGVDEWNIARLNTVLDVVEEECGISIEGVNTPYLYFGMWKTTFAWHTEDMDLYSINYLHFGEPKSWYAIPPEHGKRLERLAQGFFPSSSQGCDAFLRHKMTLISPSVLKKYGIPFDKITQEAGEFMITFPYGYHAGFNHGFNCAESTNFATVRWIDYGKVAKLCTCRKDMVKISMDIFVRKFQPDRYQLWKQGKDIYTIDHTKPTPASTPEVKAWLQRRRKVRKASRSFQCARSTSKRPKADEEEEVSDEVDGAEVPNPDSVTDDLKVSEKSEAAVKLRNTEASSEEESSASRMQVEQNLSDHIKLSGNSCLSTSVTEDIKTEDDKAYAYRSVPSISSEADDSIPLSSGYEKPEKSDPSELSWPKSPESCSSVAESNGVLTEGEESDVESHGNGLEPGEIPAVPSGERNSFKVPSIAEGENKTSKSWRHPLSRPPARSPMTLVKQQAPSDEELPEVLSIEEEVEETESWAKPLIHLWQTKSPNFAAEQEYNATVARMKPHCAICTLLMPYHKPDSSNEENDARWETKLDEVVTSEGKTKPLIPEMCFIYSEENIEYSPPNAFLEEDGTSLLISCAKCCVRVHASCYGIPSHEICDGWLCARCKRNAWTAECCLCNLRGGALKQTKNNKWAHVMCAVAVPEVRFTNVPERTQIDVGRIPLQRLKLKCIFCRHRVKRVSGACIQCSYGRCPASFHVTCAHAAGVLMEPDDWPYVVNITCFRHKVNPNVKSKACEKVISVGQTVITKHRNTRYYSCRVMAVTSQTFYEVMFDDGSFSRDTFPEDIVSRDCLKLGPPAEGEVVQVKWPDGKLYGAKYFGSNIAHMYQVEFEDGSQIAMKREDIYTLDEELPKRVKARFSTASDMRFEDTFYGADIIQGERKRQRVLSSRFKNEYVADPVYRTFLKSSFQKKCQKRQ
How it was run: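 Full-length KDM4C (0.2 nM final) was preincubated 15 min at RT with compound in HEPES pH 7.4 with Tween-20, BSA and TCEP. The reaction ran 30 min at RT after adding biotinylated peptide (3 nM final) in buffer with Fe(II), α-ketoglutarate and ascorbate. EDTA-containing AlphaScreen beads stopped it; IC50 was curve-fitted.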

[1] = AlphaScreen, full length KDM5B 0.5 nM, biotinylated H3K4Me3 peptide 3 nM, 25 minutes at room temperature, read-out: KDM5B (IC50)

T1 sequence (Q9UGL1 whole entry): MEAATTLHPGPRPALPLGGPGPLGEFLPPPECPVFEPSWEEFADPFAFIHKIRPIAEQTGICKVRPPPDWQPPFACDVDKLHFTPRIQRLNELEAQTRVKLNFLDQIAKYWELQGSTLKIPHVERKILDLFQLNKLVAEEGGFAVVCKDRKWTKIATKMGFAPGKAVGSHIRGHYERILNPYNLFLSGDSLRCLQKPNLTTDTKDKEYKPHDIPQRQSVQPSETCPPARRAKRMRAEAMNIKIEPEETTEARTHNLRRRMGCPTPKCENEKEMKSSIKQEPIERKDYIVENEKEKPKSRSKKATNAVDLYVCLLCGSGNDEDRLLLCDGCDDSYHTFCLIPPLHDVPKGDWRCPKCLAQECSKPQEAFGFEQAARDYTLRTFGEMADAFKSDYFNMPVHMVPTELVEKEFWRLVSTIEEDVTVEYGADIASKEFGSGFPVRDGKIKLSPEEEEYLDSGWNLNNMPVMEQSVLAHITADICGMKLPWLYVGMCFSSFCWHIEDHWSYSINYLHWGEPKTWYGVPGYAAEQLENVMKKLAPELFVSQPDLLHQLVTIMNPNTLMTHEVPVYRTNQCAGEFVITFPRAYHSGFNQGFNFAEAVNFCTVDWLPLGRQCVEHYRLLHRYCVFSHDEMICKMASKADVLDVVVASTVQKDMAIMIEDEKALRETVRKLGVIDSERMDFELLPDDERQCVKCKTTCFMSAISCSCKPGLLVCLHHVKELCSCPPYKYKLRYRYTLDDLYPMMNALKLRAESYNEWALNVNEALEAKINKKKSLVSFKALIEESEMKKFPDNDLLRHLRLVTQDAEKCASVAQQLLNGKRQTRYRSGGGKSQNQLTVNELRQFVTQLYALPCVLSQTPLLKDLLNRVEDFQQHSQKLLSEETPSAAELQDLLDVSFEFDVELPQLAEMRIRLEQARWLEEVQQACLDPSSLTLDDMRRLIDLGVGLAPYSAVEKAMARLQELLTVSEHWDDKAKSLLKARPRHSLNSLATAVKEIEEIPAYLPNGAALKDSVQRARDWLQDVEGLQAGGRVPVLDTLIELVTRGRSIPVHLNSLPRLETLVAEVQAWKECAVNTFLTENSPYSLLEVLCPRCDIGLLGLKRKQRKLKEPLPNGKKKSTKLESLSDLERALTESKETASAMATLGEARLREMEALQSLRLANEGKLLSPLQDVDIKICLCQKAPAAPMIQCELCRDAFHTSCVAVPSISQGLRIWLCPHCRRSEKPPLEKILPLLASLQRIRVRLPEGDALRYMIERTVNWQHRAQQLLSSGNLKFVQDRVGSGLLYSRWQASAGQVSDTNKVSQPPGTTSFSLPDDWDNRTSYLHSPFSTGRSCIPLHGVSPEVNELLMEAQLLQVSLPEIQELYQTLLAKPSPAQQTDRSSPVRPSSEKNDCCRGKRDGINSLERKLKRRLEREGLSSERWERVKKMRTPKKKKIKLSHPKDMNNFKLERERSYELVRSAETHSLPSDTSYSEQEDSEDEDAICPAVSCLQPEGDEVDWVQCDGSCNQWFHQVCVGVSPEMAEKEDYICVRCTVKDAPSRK

IC50 (KDM5B; [1])	IC50 (KDM4C)	IC50 (KDM5B)	SMILES
0.014 µM	1.4 µM	–	CC(C)c1c(O)nc(-n2ccnc2)nc1-c1cnn(CC(=O)NCCN(C)c2ccccc2)c1 [Example 102, 2-{4-[6-Hydroxy-2-(1H-imidazol-1-yl)-5-(propan-2-yl)pyrimidin-4-yl]-1H-pyrazol-1-yl}-N-{2-[methyl-(phenyl)amino]ethyl}-acetamide]
–	0.909 µM	0.015 µM	CC(C)c1c(O)nc(-n2ccnc2)nc1-c1cnn(CC(=O)N2CCCC(C#N)C2)c1 (centres unmarked) [Example 103, 1-(2-{4-[6-Hydroxy-2-(1H-imidazol-1-yl)-5-(propan-2-yl)pyrimidin-4-yl]-1H-pyrazol-1-yl}acetyl)-piperidine-3-carbonitrile]
–	1.38 µM	0.015 µM	CC(C)c1c(O)nc(-n2ccnc2)nc1-c1cnn(CC(=O)NCCO)c1 [Example 104, 2-{4-[6-Hydroxy-2-(1H-imidazol-1-yl)-5-(propan-2-yl)pyrimidin-4-yl]-1H-pyrazol-1-yl}-N-(2-hydroxy-ethyl)acetamide]
–	1.08 µM	0.017 µM	CC(C)c1c(O)nc(-n2ccnc2)nc1-c1cnn(CC(=O)NCCc2ccccn2)c1 [Example 105, 2-{4-[6-Hydroxy-2-(1H-imidazol-1-yl)-5-(propan-2-yl)pyrimidin-4-yl]-1H-pyrazol-1-yl}-N-[2-(pyridin-2-yl)ethyl]acetamide]
–	0.869 µM	0.018 µM	CC(C)c1c(O)nc(-n2ccnc2)nc1-c1cnn(CC(=O)NCc2ccn(C)n2)c1 [Example 106, 2-{4-[6-Hydroxy-2-(1H-imidazol-1-yl)-5-(propan-2-yl)pyrimidin-4-yl]-1H-pyrazol-1-yl}-N-[(1-methyl-1H-pyrazol-3-yl)methyl]-acetamide]
0.019 µM	1.22 µM	–	CC(C)c1c(O)nc(-n2ccnc2)nc1-c1cnn(CC(=O)NCCS(C)(=O)=O)c1 [Example 107, 2-{4-[6-Hydroxy-2-(1H-imidazol-1-yl)-5-(propan-2-yl)pyrimidin-4-yl]-1H-pyrazol-1-yl}-N-(2-methane-sulfonylethyl)acetamide]
0.02 µM	1.54 µM	–	CC(C)c1c(O)nc(-n2ccnc2)nc1-c1cnn(CC(=O)NCCN2CCCC2=O)c1 [Example 109, 2-{4-[6-Hydroxy-2-(1H-imidazol-1-yl)-5-(propan-2-yl)pyrimidin-4-yl]-1H-pyrazol-1-yl}-N-[2-(2-oxo-pyrrolidin-1-yl)ethyl]-acetamide]
–	1.25 µM	0.021 µM	CC(C)c1c(O)nc(-n2ccnc2)nc1-c1cnn(CC(=O)N2CCC(C#N)CC2)c1 [Example 110, 1-(2-{4-[6-Hydroxy-2-(1H-imidazol-1-yl)-5-(propan-2-yl)pyrimidin-4-yl]-1H-pyrazol-1-yl}acetyl)-piperidine-4-carbonitrile]
–	2.12 µM	0.021 µM	CC(C)c1c(O)nc(-n2ccnc2)nc1-c1cnn(CC(=O)NCCN(CC(F)(F)F)C2CC2)c1 [Example 111, N-[2-[Cyclopropyl(2,2,2-trifluoroethyl)amino]ethyl}-2-{4-[6-hydroxy-2-(1H-imidazol-1-yl)-5-(propan-2-yl)pyrimidin-4-yl]-1H-pyrazol-1-yl}acetamide]
–	1.6 µM	0.021 µM	CC(C)c1c(O)nc(-n2ccnc2)nc1-c1cnn(CC(=O)N2CCC(O)C2)c1 (centres unmarked) [Example 112, 2-{4-[6-Hydroxy-2-(1H-imidazol-1-yl)-5-(propan-2-yl)pyrimidin-4-yl]-1H-pyrazol-1-yl}-1-(3-hydroxy-pyrrolidin-1-yl)ethan-1-one]
–	2.09 µM	0.024 µM	CNC(=O)Cn1cc(-c2nc(-n3ccnc3)nc(O)c2C(C)C)cn1 [Example 113, 2-{4-[6-Hydroxy-2-(1H-imidazol-1-yl)-5-(propan-2-yl)pyrimidin-4-yl]-1H-pyrazol-1-yl)-N-methyl-acetamide]
–	2.03 µM	0.026 µM	CC(C)c1c(O)nc(-n2ccnc2)nc1-c1cnn(CC(=O)NCC(N)=O)c1 [Example 114, N-(Carbamoylmethyl)-2-{4-[6-hydroxy-2-(1H-imidazol-1-yl)-5-(propan-2-yl)pyrimidin-4-yl]-1H-pyrazol-1-yl}-acetamide]
–	1.25 µM	0.03 µM	CC(C)c1c(O)nc(-n2ccnc2)nc1-c1cnn(CC(=O)NC(CO)C(C)C)c1 (centres unmarked) [Example 115, 2-{4-[6-Hydroxy-2-(1H-imidazol-1-yl)-5-(propan-2-yl)pyrimidin-4-yl]-1H-pyrazol-1-yl}-N-(1-hydroxy-3-methylbutan-2-yl)acetamide]
–	2.25 µM	0.03 µM	CC(C)c1c(O)nc(-n2ccnc2)nc1-c1cnn(CC(=O)NCCN(C)CC(F)(F)F)c1 [Example 116, 2-{4-[6-Hydroxy-2-(1H-imidazol-1-yl)-5-(propan-2-yl)pyrimidin-4-yl]-1H-pyrazol-1-yl}-N-{2-[methyl-(2,2,2-trifluoroethyl)amino]-ethyl}acetamide]
–	1.97 µM	0.031 µM	CC(C)c1c(O)nc(-n2ccnc2)nc1-c1cnn(CC(=O)N2CCOCC2)c1 [Example 117, 2-{4-[6-Hydroxy-2-(1H-imidazol-1-yl)-5-(propan-2-yl)pyrimidin-4-yl]-1H-pyrazol-1-yl}-1-(morpholin-4-yl)ethan-1-one]
–	3.08 µM	0.033 µM	COCCNC(=O)Cn1cc(-c2nc(-n3ccnc3)nc(O)c2C(C)C)cn1 [Example 118, 2-{4-[6-Hydroxy-2-(1H-imidazol-1-yl)-5-(propan-2-yl)pyrimidin-4-yl]-1H-pyrazol-1-yl}-N-(2-methoxy-ethyl)acetamide]
0.039 µM	1.85 µM	–	CC(C)c1c(O)nc(-n2ccnc2)nc1-c1cnn(CC(=O)N2CCC(O)CC2)c1 [Example 119, 2-{4-[6-Hydroxy-2-(1H-imidazol-1-yl)-5-(propan-2-yl)pyrimidin-4-yl]-1H-pyrazol-1-yl}-1-(4-hydroxy-piperidin-1-yl)ethan-1-one]
0.018 µM	2.19 µM	–	CNC(=O)c1ccc(-c2nc(-n3ccnc3)nc(O)c2C(C)C)cn1 [Example 120, 5-[6-Hydroxy-2-(1H-imidazol-1-yl)-5-(propan-2-yl)pyrimidin-4-yl]-N-methyl-pyridine-2-carboxamide]
–	0.837 µM	0.018 µM	CC(C)c1c(O)nc(-n2ccnc2)nc1-c1ccc(C(=O)O)nc1 [Example 121, 5-[6-Hydroxy-2-(1H-imidazol-1-yl)-5-(propan-2-yl)pyrimidin-4-yl]pyridine-2-carboxylic acid]
0.007 µM	1.27 µM	–	CC(C)c1c(O)nc(-n2ccnc2)nc1OCCN1CCN(C)CC1 [Example 122, 2-(1H-Imidazol-1-yl)-6-[2-(4-methylpiperazin-1-yl)ethoxy]-5-(propan-2-yl)pyrimidin-4-ol]
–	1.59 µM	0.009 µM	CC(C)c1c(O)nc(-n2ccnc2)nc1OCCN1CCOCC1 [Example 123, 2-(1H-Imidazol-1-yl)-6-[2-(morpholin-4-yl)ethoxy]-5-(propan-2-yl)pyrimidin-4-ol]
0.01 µM	1.2 µM	–	CC(C)c1c(O)nc(-n2ccnc2)nc1OCCN1CCNCC1 [Example 124, 2-(1H-Imidazol-1-yl)-6-[2-(piperazin-1-yl)ethoxy]-5-(propan-2-yl)pyrimidin-4-ol]
0.014 µM	2.33 µM	–	CC(=O)N1CCN(CCOc2nc(-n3ccnc3)nc(O)c2C(C)C)CC1 [Example 125, 1-[4-(2-{[6-Hydroxy-2-(1H-imidazol-1-yl)-5-(propan-2-yl)pyrimidin-4-yl]oxy}ethyl)-piperazin-1-yl]ethan-1-one]
–	0.84 µM	0.015 µM	CC(C)c1c(O)nc(-n2ccnc2)nc1OCC1COCCN1 (centres unmarked) [Example 126, 2-(1H-Imidazol-1-yl)-6-(morpholin-3-ylmethoxy)-5-(propan-2-yl)pyrimidin-4-ol]
0.018 µM	3.08 µM	–	CC(C)c1c(O)nc(-n2ccnc2)nc1OCC1CN(C(=O)OCc2ccccc2)CCN1 (centres unmarked) [Example 127, Benzyl 3-({[6-hydroxy-2-(1H-imidazol-1-yl)-5-(propan-2-yl)pyrimidin-4-yl]-oxy}methyl)piperazine-1-carboxylate]
